Source: ChEMBL document CHEMBL5113487, “Novel anilinopyrimidine derivatives as potential EGFRT790M/C797S Inhibitors: Design, Synthesis, biological activity study” (Bioorg Med Chem, 2022)
The source made the active and inactive calls. No cut-off for these calls is given here.

Legend:
BaF3 [1] = assay: Antiproliferative activity against mouse BaF3 cells harboring del18/T790M/C797S triple mutant assessed as cell growth inhibition incubated for 72 hrs by cell titre glo luminescence assay; assay type: functional, cell-based; settings: BaF3, 72 h
A-431 = assay: Antiproliferative activity against human A-431 cells assessed as cell growth inhibition incubated for 72 hrs by cell titre glo luminescence assay; assay type: functional, cell-based; settings: A-431, 72 h
BaF3 [2] = assay: cells; settings: Mus musculus, BaF3, 72 h
[3] = target: Epidermal growth factor receptor (Homo sapiens, UniProt P00533, C797S/EX18DEL/T790M); assay: Inhibition of EGFR del18/T790M/C797S triple mutant (unknown origin) using TK as substrate incubated for 120 mins in the presence of ATP by HTRF assay
[4] = target: Epidermal growth factor receptor (Homo sapiens, UniProt P00533, C797S/L858R/T790M); assay: Inhibition of EGFR L858R/T790M/C797S triple mutant (unknown origin) using TK as substrate incubated for 120 mins in the presence of ATP by HTRF assay
[5] = Cmax in mouse at 5 mg/kg measured upto 24 hrs by LC-MS/MS analysis; assay type: ADME, organism-based; parameters: time < 24 hrs, dose 5 mg/kg; settings: in vivo
[6] = AUC(0 to t) in mouse at 5 mg/kg measured upto 24 hrs by LC-MS/MS analysis; assay type: ADME, organism-based; parameters: time < 24 hrs, dose 5 mg/kg; settings: in vivo
[7] = AUC(0 to infinity) in mouse at 5 mg/kg measured upto 24 hrs by LC-MS/MS analysis; assay type: ADME, organism-based; parameters: dose 5 mg/kg, time < 24 hrs; settings: in vivo
[8] = Half-life in mouse at 5 mg/kg measured upto 24 hrs by LC-MS/MS analysis; assay type: ADME, organism-based; settings: in vivo
[9] = MRT in mouse at 5 mg/kg measured upto 24 hrs by LC-MS/MS analysis; assay type: ADME, organism-based; settings: in vivo
[10] = Inhibition of ABL (unknown origin); parameters: species or system Homo sapiens
[11] = target: Mitogen-activated protein kinase 14 (Homo sapiens, UniProt Q16539); assay: Inhibition of P38alpha (unknown origin)
CDK6/cyclin D3 = CDK6/cyclin D3 (Homo sapiens, UniProt Q00534); assay: Inhibition of CDK6/cyclin-D3 (unknown origin); assay type: protein-complex assay
[12] = target: RAC-gamma serine/threonine-protein kinase (Homo sapiens, UniProt Q9Y243); assay: Inhibition of AKT3 (unknown origin)
CDK9/cyclin T1 = CDK9/cyclin T1 (Homo sapiens, UniProt P50750); assay: Inhibition of CDK9/Cyclin T1 (unknown origin); assay type: protein-complex assay
[13] = target: Serine/threonine-protein kinase B-raf (Homo sapiens, UniProt P15056); assay: Inhibition of BRAF (unknown origin)
[14] = target: Phosphatidylinositol 4,5-bisphosphate 3-kinase catalytic subunit alpha isoform (Homo sapiens, UniProt P42336); assay: Inhibition of PI3Kalpha (unknown origin)
[15] = Drug distribution in tumor of nude mouse implanted with mouse BaF3 cells harboring EGFR del18/T790M/C797S triple mutant at 20 mg/kg, po administered as single dose and measured upto 24 hrs; assay type: ADME, organism-based, Neoplasm; settings: in vivo
[16] = Drug distribution in brain of nude mouse implanted with mouse BaF3 cells harboring EGFR del18/T790M/C797S triple mutant at 20 mg/kg, po administered as single dose and measured upto 24 hrs; assay type: ADME, organism-based; settings: in vivo
[17] = Drug distribution in plasma of nude mouse implanted with mouse BaF3 cells harboring EGFR del18/T790M/C797S triple mutant at 15 to 45 mg/kg, po administered as single dose and measured after 4 hrs; assay type: ADME, organism-based; settings: in vivo, dose 15-45 mg/kg
[18] = Drug distribution in tumor of nude mouse implanted with mouse BaF3 cells harboring EGFR del18/T790M/C797S triple mutant at 15 to 45 mg/kg, po administered as single dose and measured after 4 hrs; assay type: ADME, organism-based, Neoplasm; settings: in vivo, dose 15-45 mg/kg
BaF3 [19] = assay: In vivo inhibition of ERK phosphorylation in nude mouse implanted with mouse BaF3 cells harboring EGFR del18/T790M/C797S triple mutant at 20 mg/kg, po administered as single dose and measured upto 24 hrs by Western blot analysis; assay type: organism-based
PC-9 [20] = assay: Antitumor activity against human PC-9 cells harboring EGFR del18/T790M/C797S triple mutant xenografted in NOD/SCID mouse assessed as tumor growth inhibition at 15 mg/kg, po administered once a day for 21 days relative to control; assay type: functional; settings: PC-9, 504 h, time 21 day, read-out: TGI
PC-9 [21] = assay: Antitumor activity against human PC-9 cells harboring EGFR del18/T790M/C797S triple mutant xenografted in NOD/SCID mouse assessed as tumor growth inhibition at 30 mg/kg, po administered once a day for 21 days relative to control; assay type: functional; settings: PC-9, 504 h, time 21 day, read-out: TGI
PC-9 [22] = assay: Antitumor activity against human PC-9 cells harboring EGFR del18/T790M/C797S triple mutant xenografted in NOD/SCID mouse assessed as tumor growth inhibition at 40 mg/kg, po administered once a day for 21 days relative to control; assay type: functional; settings: PC-9, 504 h, time 21 day, read-out: TGI
BaF3 [23] = assay: Antitumor activity against mouse BaF3 cells harboring EGFR del18/T790M/C797S triple mutant implanted in Balb/c nude mouse assessed as tumor growth inhibition at 15 mg/kg, po administered once a day for 14 days relative to control; assay type: functional; settings: BaF3, 336 h, time 14 day, read-out: TGI
BaF3 [24] = assay: Antitumor activity against mouse BaF3 cells harboring EGFR del18/T790M/C797S triple mutant implanted in Balb/c nude mouse assessed as tumor growth inhibition at 30 mg/kg, po administered once a day for 14 days relative to control; assay type: functional; settings: BaF3, 336 h, time 14 day, read-out: TGI
BaF3 [25] = assay: Antitumor activity against mouse BaF3 cells harboring EGFR del18/T790M/C797S triple mutant implanted in Balb/c nude mouse assessed as tumor growth inhibition at 40 mg/kg, po administered once a day for 14 days relative to control; assay type: functional; settings: BaF3, 336 h, time 14 day, read-out: TGI
BaF3 [26] = assay: Antitumor activity against mouse BaF3 cells harboring EGFR del18/T790M/C797S triple mutant implanted in Balb/c nude mouse assessed as tumor weight at 15 mg/kg, po administered once a day for 14 days; assay type: functional; settings: time 14 day
BaF3 [27] = assay: Antitumor activity against mouse BaF3 cells harboring EGFR del18/T790M/C797S triple mutant implanted in Balb/c nude mouse assessed as tumor weight at 30 mg/kg, po administered once a day for 14 days; assay type: functional; settings: time 14 day
BaF3 [28] = assay: Antitumor activity against mouse BaF3 cells harboring EGFR del18/T790M/C797S triple mutant implanted in Balb/c nude mouse assessed as tumor weight at 40 mg/kg, po administered once a day for 14 days; assay type: functional; settings: time 14 day
[29] = Antitumor activity against patient-derived human […] cells xenografted in mouse assessed as tumor growth inhibition at 20 mg/kg, po administered once a day for 28 days relative to control; assay type: functional; settings: LD1-0025-200717, 672 h, time 28 day, read-out: TGI
[30] = Antitumor activity against patient-derived human […] cells xenografted in mouse assessed as tumor growth inhibition at 40 mg/kg, po administered once a day for 28 days relative to control; assay type: functional; settings: LD1-0025-200717, 672 h, time 28 day, read-out: TGI
[31] = Antitumor activity against patient-derived human […] cells xenografted in mouse assessed as tumor weight at 20 mg/kg, po administered once a day for 28 days relative to control; assay type: functional, LD1-0025-200717; settings: time 28 day
[32] = Antitumor activity against patient-derived human […] cells xenografted in mouse assessed as tumor weight at 40 mg/kg, po administered once a day for 28 days relative to control; assay type: functional, LD1-0025-200717; settings: time 28 day
[33] = Toxicity in Sprague-Dawley rat assessed as animal death at 3 to 15 mg/kg, po administered once a day for 4 weeks and measured 4 weeks post recovery period; assay type: organism-based; settings: in vivo, 1344 h, dose 3-15 mg/kg, time 8 weeks
[34] = Toxicity in Sprague-Dawley rat assessed as effect on body weight at 3 to 7.5 mg/kg, po administered once a day for 4 weeks and measured 4 weeks post recovery period; assay type: organism-based; settings: in vivo, 1344 h, dose 3-7.5 mg/kg, time 8 weeks
[35] = Toxicity in Sprague-Dawley rat assessed as body weight gain during recovery period at 15 mg/kg, po administered once a day for 4 weeks and measured 4 weeks post recovery period; assay type: organism-based; settings: in vivo, 1344 h, time 8 weeks
[36] = Toxicity in orally dosed Sprague-Dawley rat assessed as maximum tolerated dose administered once a day for 4 weeks and measured 4 weeks post recovery period; assay type: organism-based; settings: in vivo, route po, time 8 weeks
[37] = Acute toxicity in Sprague-Dawley rat assessed as biological changes in clinical pathology at 15 to 60 mg/kg, IG administered as single dose and measured after 14 days; assay type: organism-based; settings: in vivo, po, 336 h, dose 15-60 mg/kg, time 14 day
[38] = target: Epidermal growth factor receptor (Homo sapiens, UniProt P00533); assay: In vivo inhibition of EGFR phosphorylation in nude mouse implanted with mouse BaF3 cells harboring EGFR del18/T790M/C797S triple mutant at 20 mg/kg, po administered as single dose and measured upto 24 hrs by Western blot analysis

CDK9/cyclin T1, sequence (O60563 whole entry): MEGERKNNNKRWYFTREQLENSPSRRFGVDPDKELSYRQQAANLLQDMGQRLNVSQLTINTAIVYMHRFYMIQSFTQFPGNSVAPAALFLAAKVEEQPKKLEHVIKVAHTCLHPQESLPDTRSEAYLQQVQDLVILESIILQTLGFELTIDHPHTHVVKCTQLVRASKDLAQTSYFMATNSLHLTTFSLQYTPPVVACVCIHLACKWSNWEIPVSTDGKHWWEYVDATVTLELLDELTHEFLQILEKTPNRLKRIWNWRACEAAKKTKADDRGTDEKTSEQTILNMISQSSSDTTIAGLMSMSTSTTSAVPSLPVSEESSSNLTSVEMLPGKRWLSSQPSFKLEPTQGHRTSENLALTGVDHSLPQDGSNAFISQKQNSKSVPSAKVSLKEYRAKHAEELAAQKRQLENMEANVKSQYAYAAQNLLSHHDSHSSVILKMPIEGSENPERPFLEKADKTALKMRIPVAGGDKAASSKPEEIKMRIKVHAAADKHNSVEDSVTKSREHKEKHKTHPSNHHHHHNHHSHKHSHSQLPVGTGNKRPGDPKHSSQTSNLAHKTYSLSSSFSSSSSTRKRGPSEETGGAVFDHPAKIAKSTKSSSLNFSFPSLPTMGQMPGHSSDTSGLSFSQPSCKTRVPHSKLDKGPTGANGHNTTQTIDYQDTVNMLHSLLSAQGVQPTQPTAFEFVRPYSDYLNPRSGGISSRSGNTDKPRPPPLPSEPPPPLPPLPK
CDK9/cyclin T1, sequence (P50750 whole entry): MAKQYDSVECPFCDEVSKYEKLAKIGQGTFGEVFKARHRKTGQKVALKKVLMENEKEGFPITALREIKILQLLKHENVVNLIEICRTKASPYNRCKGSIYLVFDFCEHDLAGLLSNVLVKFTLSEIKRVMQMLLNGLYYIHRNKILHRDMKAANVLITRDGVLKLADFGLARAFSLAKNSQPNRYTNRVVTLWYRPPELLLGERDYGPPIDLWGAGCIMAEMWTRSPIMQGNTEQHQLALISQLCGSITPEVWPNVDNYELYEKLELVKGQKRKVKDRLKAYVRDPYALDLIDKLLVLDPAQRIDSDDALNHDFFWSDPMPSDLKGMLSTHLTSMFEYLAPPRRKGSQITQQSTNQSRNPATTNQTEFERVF
Serine/threonine-protein kinase B-raf, sequence (P15056 whole entry, canonical isoform): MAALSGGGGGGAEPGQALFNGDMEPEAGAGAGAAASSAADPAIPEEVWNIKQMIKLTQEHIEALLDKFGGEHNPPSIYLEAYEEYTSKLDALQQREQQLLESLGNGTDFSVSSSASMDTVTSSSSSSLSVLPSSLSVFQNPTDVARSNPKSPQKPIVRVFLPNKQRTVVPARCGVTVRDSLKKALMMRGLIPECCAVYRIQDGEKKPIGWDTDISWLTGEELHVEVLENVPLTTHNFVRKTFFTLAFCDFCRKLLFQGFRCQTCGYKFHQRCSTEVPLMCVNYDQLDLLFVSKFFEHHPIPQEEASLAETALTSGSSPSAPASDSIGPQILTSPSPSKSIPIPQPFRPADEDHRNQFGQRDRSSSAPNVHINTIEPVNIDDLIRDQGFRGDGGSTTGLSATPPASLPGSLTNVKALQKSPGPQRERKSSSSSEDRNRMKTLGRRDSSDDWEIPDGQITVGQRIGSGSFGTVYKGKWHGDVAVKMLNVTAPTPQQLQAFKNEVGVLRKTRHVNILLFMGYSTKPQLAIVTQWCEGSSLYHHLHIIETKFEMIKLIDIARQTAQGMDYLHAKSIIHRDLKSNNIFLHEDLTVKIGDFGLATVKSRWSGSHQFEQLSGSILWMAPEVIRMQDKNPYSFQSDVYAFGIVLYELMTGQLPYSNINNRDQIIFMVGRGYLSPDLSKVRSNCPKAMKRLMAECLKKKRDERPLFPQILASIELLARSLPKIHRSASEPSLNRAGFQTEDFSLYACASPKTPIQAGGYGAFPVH
Phosphatidylinositol 4,5-bisphosphate 3-kinase catalytic subunit alpha isoform, sequence (P42336 whole entry, canonical isoform): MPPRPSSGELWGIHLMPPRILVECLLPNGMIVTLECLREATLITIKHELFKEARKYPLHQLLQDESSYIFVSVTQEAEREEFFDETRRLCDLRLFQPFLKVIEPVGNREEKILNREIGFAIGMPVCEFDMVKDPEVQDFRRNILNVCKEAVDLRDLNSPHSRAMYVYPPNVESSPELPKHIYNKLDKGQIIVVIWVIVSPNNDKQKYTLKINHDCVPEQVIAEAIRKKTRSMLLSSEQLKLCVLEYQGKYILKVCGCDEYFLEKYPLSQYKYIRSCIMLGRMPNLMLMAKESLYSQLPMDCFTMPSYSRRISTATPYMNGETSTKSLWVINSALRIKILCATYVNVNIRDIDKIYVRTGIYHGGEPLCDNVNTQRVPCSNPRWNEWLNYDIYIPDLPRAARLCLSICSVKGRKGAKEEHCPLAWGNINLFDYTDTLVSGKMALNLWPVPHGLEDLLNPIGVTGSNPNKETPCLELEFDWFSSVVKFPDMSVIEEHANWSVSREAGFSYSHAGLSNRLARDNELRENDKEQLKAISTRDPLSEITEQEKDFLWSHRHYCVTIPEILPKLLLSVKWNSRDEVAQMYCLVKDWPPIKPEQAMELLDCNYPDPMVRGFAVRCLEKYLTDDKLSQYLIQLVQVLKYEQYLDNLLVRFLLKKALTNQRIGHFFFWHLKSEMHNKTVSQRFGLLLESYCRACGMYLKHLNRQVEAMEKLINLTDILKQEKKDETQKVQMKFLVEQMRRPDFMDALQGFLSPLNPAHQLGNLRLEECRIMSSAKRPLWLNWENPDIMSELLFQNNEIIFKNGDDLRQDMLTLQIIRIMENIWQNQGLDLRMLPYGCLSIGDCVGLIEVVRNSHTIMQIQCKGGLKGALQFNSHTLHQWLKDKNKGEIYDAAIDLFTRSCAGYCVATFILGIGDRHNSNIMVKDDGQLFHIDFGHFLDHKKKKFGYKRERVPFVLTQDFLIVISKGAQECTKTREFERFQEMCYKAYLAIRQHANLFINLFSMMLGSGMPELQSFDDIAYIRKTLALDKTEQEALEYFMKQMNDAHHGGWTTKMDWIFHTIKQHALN
CDK6/cyclin D3, sequence (P30281 whole entry): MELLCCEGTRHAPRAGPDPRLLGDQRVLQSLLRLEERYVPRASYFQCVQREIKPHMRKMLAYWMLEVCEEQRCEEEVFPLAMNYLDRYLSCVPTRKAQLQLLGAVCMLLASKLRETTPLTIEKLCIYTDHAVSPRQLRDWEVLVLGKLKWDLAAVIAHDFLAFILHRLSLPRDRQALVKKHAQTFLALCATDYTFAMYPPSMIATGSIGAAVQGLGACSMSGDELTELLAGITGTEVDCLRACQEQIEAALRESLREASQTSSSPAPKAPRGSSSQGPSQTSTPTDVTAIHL
CDK6/cyclin D3, sequence (Q00534 whole entry): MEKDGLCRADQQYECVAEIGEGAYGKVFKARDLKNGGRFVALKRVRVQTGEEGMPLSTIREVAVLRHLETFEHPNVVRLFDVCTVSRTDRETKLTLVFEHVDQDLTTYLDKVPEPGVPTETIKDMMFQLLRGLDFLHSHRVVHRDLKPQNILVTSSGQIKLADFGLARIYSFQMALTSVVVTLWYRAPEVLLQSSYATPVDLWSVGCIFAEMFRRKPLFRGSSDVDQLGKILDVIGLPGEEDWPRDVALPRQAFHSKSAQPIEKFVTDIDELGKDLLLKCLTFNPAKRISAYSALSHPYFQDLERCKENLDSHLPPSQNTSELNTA
RAC-gamma serine/threonine-protein kinase, sequence (Q9Y243 whole entry): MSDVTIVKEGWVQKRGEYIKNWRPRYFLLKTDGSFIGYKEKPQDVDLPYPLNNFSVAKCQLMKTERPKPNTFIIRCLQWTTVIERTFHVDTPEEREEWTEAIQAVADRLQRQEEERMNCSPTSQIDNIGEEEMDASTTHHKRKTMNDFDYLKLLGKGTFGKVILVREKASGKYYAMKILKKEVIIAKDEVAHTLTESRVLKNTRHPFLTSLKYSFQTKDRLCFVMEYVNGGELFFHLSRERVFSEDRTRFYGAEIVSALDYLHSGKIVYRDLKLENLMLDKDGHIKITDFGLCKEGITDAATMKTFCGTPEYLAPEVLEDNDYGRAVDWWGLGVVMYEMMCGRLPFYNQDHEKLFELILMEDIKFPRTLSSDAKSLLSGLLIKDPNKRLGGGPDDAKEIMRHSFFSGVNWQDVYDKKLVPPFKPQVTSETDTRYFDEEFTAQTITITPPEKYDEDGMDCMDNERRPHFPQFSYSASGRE
Mitogen-activated protein kinase 14, sequence (Q16539 whole entry): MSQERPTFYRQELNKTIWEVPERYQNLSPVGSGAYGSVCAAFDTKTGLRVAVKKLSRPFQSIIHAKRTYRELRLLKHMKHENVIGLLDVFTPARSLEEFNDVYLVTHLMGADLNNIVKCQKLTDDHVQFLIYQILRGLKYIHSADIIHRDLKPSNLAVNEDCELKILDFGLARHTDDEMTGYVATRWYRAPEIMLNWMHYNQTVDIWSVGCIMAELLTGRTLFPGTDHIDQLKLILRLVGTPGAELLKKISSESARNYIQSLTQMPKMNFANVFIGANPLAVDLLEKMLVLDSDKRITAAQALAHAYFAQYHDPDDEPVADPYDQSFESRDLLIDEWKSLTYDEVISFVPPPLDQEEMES

With COc1cc(N2CCC(N3CCN(C)CC3)CC2)ccc1Nc1ncc(Cl)c(Nc2ccccc2P(C)(C)=O)n1 [BRIGATINIB] the IC50 (BaF3 [1]) was 433 nM, the IC50 (A-431) was 709 nM and the IC50 (BaF3 [2]) was < 100 nM.

In the case of COCC1CN(C2CCN(c3cc(OC)c(Nc4ncc(Br)c(Nc5ccc6c(c5P(C)(C)=O)OCCO6)n4)cc3C)CC2)C1, the IC50 [3] is reported as 0.31 nM, the IC50 [4] is reported as 0.09 nM and the IC50 (BaF3 [1]) is reported as 14 nM. It also gave a Cmax [5] of 1990 ng/mL, an AUC(0-t) at 24 h [6] of 11600 ng·h/mL and an AUC(0-inf) [7] of 11600 ng·h/mL. The half-life [8] was 2.9 h, the MRT [9] was 4.7 h and the IC50 [10] was 86 nM. The IC50 [11] was > 10000 nM, the IC50 (CDK6/cyclin D3) was > 10000 nM and the IC50 [12] was > 10000 nM. For the same molecule, the IC50 (CDK9/cyclin T1) was 4080 nM, the IC50 [13] was > 10000 nM and the IC50 [14] was > 10000 nM. The Drug uptake [15] was “Active”, the Drug uptake [16] was “Active” and the Drug uptake [17] was “Active”. For the same molecule, the Drug uptake [18] was “Active”, the inhibition (BaF3 [19]) was “Active” and the inhibition in vivo at 15 mg/kg (PC-9 [20]) was 22%. The inhibition in vivo at 30 mg/kg (PC-9 [21]) was 47.2%, the inhibition in vivo at 40 mg/kg (PC-9 [22]) was 68.8% and the inhibition in vivo at 15 mg/kg (BaF3 [23]) was 48.4%. It also gave an inhibition in vivo at 30 mg/kg (BaF3 [24]) of 82.6%, an inhibition in vivo at 40 mg/kg (BaF3 [25]) of 90.3% and an Activity (BaF3 [26]) of 0.653 g. The Activity (BaF3 [27]) was 0.319 g, the Activity (BaF3 [28]) was 0.161 g and the inhibition in vivo at 20 mg/kg [29] was 58.4%. For the same molecule, the inhibition in vivo at 40 mg/kg [30] was 67.4%, the Activity [31] was 0.475 g and the Activity [32] was 0.38 g. For the same molecule, the Activity [33] was “Non-Toxic”, the Activity [34] was “Non-Toxic” and the Activity [35] was “Toxic”. For the same molecule, the MTD at 1344 h [36] was 15 mg/kg, the Activity [37] was “Non-Toxic” and the inhibition [38] was “Active”.
